Data on four molecules can be found in patent publication US20220064736A1, “UROTHELIAL CANCER AND METHODS OF DETECTION AND TARGETED THERAPY” (THE JOHNS HOPKINS UNIVERSITY, priority 2015, published 2022).

The test system of assay [1] is GULP1 transcript. The assay can be described thus: 5-Aza-dC treatment of UC cell lines, GULP1 expression by RT-PCR. Type of assay: cell-based, human. The procedure: Twenty four hours before treatment, cells were plated at low density (1-3×10^6 cells, dependent on growth characteristics of the respective cell line) in T75 cm^2 Tissue Culture Flasks (BD Biosciences, Bedford, Mass., USA). Stock solutions of 100 mM 5-Aza-dC (Sigma-Aldrich, St. Louis, Mo.) and 5 mM Trichostatin A (TSA) (Sigma-Aldrich) were prepared with DMSO (Sigma-Aldrich). Immediately before addition to the cell culture medium, appropriate aliquots of the stock solutions were dissolved in PBS (pH 7.5). Cells were treated with 5 μM 5-Aza-dC for 3 to 5 days. Medium with 5-Aza-dC was changed daily. Additionally, combination treatment with 5-Aza-dC and TSA was performed by adding 5 μM of 5-Aza-dC daily for 5 days and TSA (300 nmol/L) was added to the medium for the final 24 hours. Cells were harvested 24 hours after the last day of treatment (5-Aza-dC only and 5-Aza-dC+TSA) for RNA extraction and the analysis of gene expression by Reverse Transcriptase-PCR (RT-PCR).
Total RNA (500 ng) from cell lines and from bladder tissue were reverse-transcribed with qScript cDNA SuperMix™ (Quanta BioSciences) kit. The primers were designed by using Primer3 software. Actin type B (ACTB) was used as a loading control. […] Expression of the gene of interest was quantified by 2^−ΔΔCT method.

The subject of assay [2] is T24 shGULP1 cells versus T24 shScramble cells. The experiment in a line: MTT viability assay upon treatment with serial dilution of cisplatin. Type of assay: cell-based, human. The note with it: T24 shGULP1 vs T24 shScramble, different concentrations of CDDP.
The test system of assay [3] is muscle-invasive bladder cancer (MIUC). The note with it: patients with MIUC, neo-adjuvant chemotherapy preceding radical surgery; cited from earlier work.
Assay [4] relates to GULP1 localization in T24 cells. The experiment in a line: Confocal imaging of GULP1 subcellular localization upon blocking nuclear export. The note with it: treatment for 5 hours. The format is cell-based, human. Here is the method: To this end, the subcellular localization of GULP1 was determined by confocal microscopy analysis and nuclear-cytoplasm fractionation experiments using T24 cell line. The findings indicate that GULP1 localized in both nucleus and cytoplasm (FIG. 3d, upper and lower panel, and FIG. 8a). Ubiquitous localization pattern of GULP1 was further confirmed by performing immunofluorescence and confocal microscopy analysis by using two different antibodies against GULP1 and upon blocking nuclear export machinery by Leptomycin B (LMB) treatment for 5 hours (T24 cells in FIG. 3d and FIG. 8b).
Cells were grown on glass coverslips for 72 hs. After fixation in 4% paraformaldehyde, they were incubated in PBS 0.2% Glycine, permeabilized with PBS 10% Triton X100 for 10 minutes and incubated in Blocking buffer (PBS 3% BSA, 10% goat serum, 0.02% Tween) for 2-3 hours at r.t.
Incubation with the indicated primary antibodies (see Table 5) has been performed at 4° C. in the dark. After 5 washing with PBS 0.02% Tween, coverslips have been incubated with the indicated secondary antibodies (Table 5) for 1 h at r.t. For the case actin cytoskeleton analysis, after fixation, the coverslips have been incubated 90 minutes with Alexa Fluor® 488 Phalloidin (Life Technologies, 1:1000 in PBS). […] Slides were examined and photographed using a fluorescence microscope.

Assay [5] deals with T1, BTB and CNC homology 1 (Bach1) (UniProt O14867 1-736).
T1 construct: Endogenous protein from lysates of human cell lines
T1 sequence (looked up): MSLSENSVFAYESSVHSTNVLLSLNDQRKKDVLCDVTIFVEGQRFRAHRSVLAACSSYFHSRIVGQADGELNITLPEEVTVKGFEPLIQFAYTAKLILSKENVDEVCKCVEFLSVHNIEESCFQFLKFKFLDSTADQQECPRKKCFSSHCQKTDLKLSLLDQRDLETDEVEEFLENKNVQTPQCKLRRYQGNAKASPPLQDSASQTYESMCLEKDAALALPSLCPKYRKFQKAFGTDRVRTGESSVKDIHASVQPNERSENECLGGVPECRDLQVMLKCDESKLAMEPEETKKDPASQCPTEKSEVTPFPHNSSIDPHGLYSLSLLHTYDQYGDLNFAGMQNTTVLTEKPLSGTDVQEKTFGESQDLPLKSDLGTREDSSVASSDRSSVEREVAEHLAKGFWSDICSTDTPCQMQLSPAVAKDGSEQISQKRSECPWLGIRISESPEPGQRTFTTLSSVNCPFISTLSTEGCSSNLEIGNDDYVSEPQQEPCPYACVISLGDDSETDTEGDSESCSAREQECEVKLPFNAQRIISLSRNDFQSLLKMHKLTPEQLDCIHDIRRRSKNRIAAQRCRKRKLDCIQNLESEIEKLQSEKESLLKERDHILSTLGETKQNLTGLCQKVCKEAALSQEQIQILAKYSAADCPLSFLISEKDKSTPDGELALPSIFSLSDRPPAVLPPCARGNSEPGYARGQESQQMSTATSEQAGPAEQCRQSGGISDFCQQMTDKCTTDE
The experiment in a line: co-immunoprecipitation of endogenous GULP1 from whole-cell lysates (BFTC905, BFTC909, HUC1, T24), western blot. From the text:
(§1) a. […] Confocal imaging analysis of T24 cells. […] A not related protein antibody was used as a negative control for IP and 10% of whole cell lysate was used as input. d.

The target in assay [6] is T2, Nuclear factor E2-related factor 2 (Nrf2) (UniProt Q16236 1-605, limits assumed).
T2 construct: Endogenous protein from lysates of human cell lines; also called NFE2L2; NF2EL2
T2 sequence (looked up): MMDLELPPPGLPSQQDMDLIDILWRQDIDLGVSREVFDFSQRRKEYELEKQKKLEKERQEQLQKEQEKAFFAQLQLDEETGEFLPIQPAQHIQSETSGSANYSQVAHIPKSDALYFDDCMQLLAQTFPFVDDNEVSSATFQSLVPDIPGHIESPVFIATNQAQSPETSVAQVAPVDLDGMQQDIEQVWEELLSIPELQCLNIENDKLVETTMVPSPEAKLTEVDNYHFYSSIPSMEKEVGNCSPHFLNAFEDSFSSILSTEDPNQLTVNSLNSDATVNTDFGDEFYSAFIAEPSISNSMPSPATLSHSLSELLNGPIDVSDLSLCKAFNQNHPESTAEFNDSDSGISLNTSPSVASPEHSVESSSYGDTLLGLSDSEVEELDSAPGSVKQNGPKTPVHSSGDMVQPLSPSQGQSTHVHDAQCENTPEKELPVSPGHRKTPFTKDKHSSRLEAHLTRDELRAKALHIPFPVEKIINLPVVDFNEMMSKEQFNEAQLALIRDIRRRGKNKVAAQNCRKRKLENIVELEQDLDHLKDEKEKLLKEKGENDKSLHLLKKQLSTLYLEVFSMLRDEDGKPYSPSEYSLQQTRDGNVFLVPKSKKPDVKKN
The description is as above.
Excerpt: as §1

For the molecule `Nc1ncn([C@H]2C[C@H](O)[C@@H](CO)O2)c(=O)n1` [5-aza-dC, 5-Aza-2′-deoxycytidine], the GULP1 transcript level result in assay [1] (HT-1376 and SW780 UC cells, 5-azadC with or without trichostatin A (TSA), consistent with promoter demethylation) is reported as “several fold increase in GULP1 transcript”. In addition, the GULP1 reactivation entry in assay [1] (UC cell lines) is “reactivation of GULP1 was observed”. Turning to `[NH2][Pt]([NH2])([Cl])[Cl]` [CDDP, Cisplatin], the “Cell viability of GULP1 knock-down cells compared with control cells” value in assay [2] was “significantly higher viability than the control cells”. Further, in assay [3], the “overall long-term survival benefit” value is recorded as 6%. For the molecule `CCC(=C/[C@H](C)C/C=C/C(C)=C/[C@@H](C)C(=O)[C@@H](C)[C@H](O)[C@@H](C)C/C(C)=C/C(=O)O)/C=C/[C@@H]1OC(=O)C=C[C@@H]1C` [Leptomycin B], the GULP1 nuclear export entry in assay [4] is reported as “prevent GULP1 from going out from nucleus”.

B1: PTB Domain-Containing Engulfment Adaptor Protein1 (GULP1) (other, human, UniProt Q9UBP9 1-304, looked up)
chain: MNRAFSRKKDKTWMHTPEALSKHFIPYNAKFLGSTEVEQPKGTEVVRDAVRKLKFARHIKKSEGQKIPKVELQISIYGVKILEPKTKEVQHNCQLHRISFCADDKTDKRIFTFICKDSESNKHLCYVFDSEKCAEEITLTIGQAFDLAYRKFLESGGKDVETRKQIAGLQKRIQDLETENMELKNKVQDLENQLRITQVSAPPAGSMTPKSPSTDIFDMIPFSPISHQSSMPTRNGTQPPPVPSRSTEIKRDLFGAEPFDPFNCGAADFPPDIQSKLDEMQEGFKMGLTLEGTVFCLDPLDSRC
notes: Endogenous protein from cell lysates; also called engulfment adaptor PTB domain containing 1; human homologue of CED-6
For the molecule B1, the binding result in assay [5] and in assay [6] was “no binding” in each case.
